According to patent publication US6610883B1, “Compounds having selective activity for retinoid X receptors, and means for modulation of processes mediated by retinoid X receptors” (Ligand Pharmaceuticals, Inc., priority 1992, dated 2003):
Read-outs that look alike come from different tables or passages of the source.

Assays:
Type in all cases: cell-based
RARβ = target: T1, RARβ (Homo sapiens, UniProt P10826); experiment: Co-transfection (cis-trans) assay in CV-1 cells, RARβ; parameters: expressed in transfected cells; host or cells: CV-1 (monkey kidney); details: for Emax at 10 µM: CV-1, maximal response relative to all-trans-retinoic acid at 10^−5 M, read-out: Efficacy; for EC50: CV-1 cells, luciferase reporter, 36 h, read-out: Potency
T1 sequence (P10826 1-455): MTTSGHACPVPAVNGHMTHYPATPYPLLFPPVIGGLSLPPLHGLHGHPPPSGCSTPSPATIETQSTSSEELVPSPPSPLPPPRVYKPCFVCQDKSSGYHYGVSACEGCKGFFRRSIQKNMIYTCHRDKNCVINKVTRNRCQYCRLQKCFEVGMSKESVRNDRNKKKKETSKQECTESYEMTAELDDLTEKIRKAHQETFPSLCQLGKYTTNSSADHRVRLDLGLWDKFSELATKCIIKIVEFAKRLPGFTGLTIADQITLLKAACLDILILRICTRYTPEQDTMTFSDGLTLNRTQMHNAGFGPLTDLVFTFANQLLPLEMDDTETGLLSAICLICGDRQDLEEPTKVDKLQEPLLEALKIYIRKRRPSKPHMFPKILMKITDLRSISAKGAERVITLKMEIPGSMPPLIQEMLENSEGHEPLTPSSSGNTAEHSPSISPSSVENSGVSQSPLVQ
Text: (§1) The co-transfection assay provides a mechanism to evaluate the ability of a compound to modulate the transcription response initiated by an intracellular receptor. […] Berger, et al., J. Steroid Biochem Molec.
(§2) Briefly, the co-transfection assay involves the introduction of two plasmids by transient transfection into a retinoid receptor-negative mammalian cell background. The first plasmid contains a retinoid receptor cDNA and directs constitutive expression of the encoded receptor. The second plasmid contains a cDNA that encodes for a readily quantifiable protein, e.g., firefly luciferase or chloramphenicol acetyl transferase (CAT), under control of a promoter containing a retinoid acid response element, which confers retinoid dependence on the transcription of the reporter. In this co-transfection assay, all retinoid receptors respond to all-trans-retinoic acid in a similar fashion. This assay can be used to accurately measure efficacy and potency of retinoic acid and synthetic retinoids as ligands that interact with the individual retinoid receptor subtypes.
(§3) Accordingly, synthetic retinoid compounds of the current invention were evaluated for their interaction with retinoid receptor subtypes using the co-transfection assay in which CV-1 cells were co-transfected with one of the retinoid receptor subtypes, a reporter construct, and an internal control to allow normalization of the response for transfection efficiency. The following example is illustrative.
(§4) Retinoids: All-tans-retinoic acid (RA) and 13-cis-retinoic acid (13-cis-RA) were obtained from Sigma. […] Retinoids were dissolved in dimethylsulfoxide for use in the transcriptional activation assays.
(§5) Co-transfection Assay In CV-1 Cells: A monkey kidney cell line, CV-1, was used in the cis-trans assay. Cells were transfected with two plasmids. […] The cis-vector contains an easily assayable gene product, in this case the firefly luciferase, coupled to a retinoid-responsive promoter, i.e., an RARE or RXRE. Addition of retinoic acid or an appropriate synthetic retinoid results in the formation of a retinoid-RAR or -RXR complex that activates the expression of luciferase gene, causing light to be emitted from cell extracts. The level of luciferase activity is directly proportional to the effectiveness of the retinoid-receptor complex in activating gene expression. This sensitive and reproducible co-transfection approach permits the identification of retinoids that interact with the different receptor isoforms.
(§6) Cells were cultured in DMEM supplemented with 10% charcoal resin-stripped fetal bovine serum, and experiments were conducted in 96-well plates. […] Cells were transfected for 6 h and then washed to remove the precipitate. The cells were then incubated for 36 h with or without retinoid. After the transfection, all subsequent steps were performed on a Beckman Biomek Automated Workstation. […] All determinations were performed in triplicate in two independent experiments and were normalized for transfection efficiency by using β-galactosidase as the internal control. […] Efficacy values less than 5% are not statistically different than the 0% background.

RXRγ = target: T2, RXRγ (Mus musculus, UniProt P28705); experiment: Co-transfection (cis-trans) assay in CV-1 cells, RXRγ; details: for Emax at 10 µM: CV-1, maximal response relative to all-trans-retinoic acid at 10^−5 M, read-out: Efficacy
T2 construct: expressed in transfected cells; host or cells: CV-1 (monkey kidney)
T2 sequence (P28705 1-463): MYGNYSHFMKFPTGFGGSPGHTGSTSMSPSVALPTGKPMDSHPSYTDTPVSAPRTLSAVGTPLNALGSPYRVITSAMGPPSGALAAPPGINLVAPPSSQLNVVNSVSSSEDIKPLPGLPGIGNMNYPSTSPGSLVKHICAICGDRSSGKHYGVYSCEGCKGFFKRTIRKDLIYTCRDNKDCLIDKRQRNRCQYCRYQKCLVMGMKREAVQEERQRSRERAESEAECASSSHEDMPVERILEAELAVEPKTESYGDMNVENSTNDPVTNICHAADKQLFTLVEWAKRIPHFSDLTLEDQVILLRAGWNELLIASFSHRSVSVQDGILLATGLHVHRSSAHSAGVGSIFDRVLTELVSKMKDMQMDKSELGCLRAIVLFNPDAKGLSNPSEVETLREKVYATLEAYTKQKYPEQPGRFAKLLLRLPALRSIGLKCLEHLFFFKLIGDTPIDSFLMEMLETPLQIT
Text: as §1, §2, §3, §4, §5, §6

RARα = target: T3, RARα (Homo sapiens, UniProt P10276); experiment: Co-transfection (cis-trans) assay in CV-1 cells, RARα; parameters: expressed in transfected cells; host or cells: CV-1 (monkey kidney); details: for Emax at 10 µM: CV-1, maximal response relative to all-trans-retinoic acid at 10^−5 M, read-out: Efficacy; for EC50: CV-1 cells, luciferase reporter, 36 h, read-out: Potency
T3 sequence (P10276 1-462): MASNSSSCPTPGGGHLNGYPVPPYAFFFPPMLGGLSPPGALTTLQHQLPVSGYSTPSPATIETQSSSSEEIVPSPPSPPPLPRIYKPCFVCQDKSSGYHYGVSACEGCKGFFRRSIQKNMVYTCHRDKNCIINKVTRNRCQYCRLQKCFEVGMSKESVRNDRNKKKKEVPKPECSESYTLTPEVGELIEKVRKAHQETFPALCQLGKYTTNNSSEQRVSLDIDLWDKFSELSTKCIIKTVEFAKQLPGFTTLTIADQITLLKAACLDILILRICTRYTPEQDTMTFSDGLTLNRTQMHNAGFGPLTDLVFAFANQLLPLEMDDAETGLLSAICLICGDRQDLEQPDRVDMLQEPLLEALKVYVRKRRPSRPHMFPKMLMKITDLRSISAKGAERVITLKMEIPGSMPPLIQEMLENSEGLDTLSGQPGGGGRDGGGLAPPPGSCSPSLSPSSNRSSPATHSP
Text: as §1, §2, §3, §4, §5, §6

[1] = RXRγ, CV-1 cells, luciferase reporter, 36 h, read-out: Potency

SMILES	Emax at 10 µM (RARβ) [%]	EC50 (RARβ) [µM]	Emax at 10 µM (RXRγ; RXRγ) [%]	EC50 (RXRγ; [1]) [µM]	Emax at 10 µM (RARα) [%]	EC50 (RARα) [µM]	EC50 (RXRγ) [µM]
Cc1cc2c(cc1C(=O)c1ccc(C(=O)Nc3ccc(O)cc3)cc1)C(C)(C)CCC2(C)C [3-Methyl-TTNCHBP, 4-[(3,5,5,8,8-pentamethyl-5,6,7,8-tetrahydro-2-naphthyl)carbonyl]-N-(4-hydroxyphenyl)benzamide]	7	> 10	128	0.3	< 2	> 10	
CC1=C(C=CC2CCCCC2/C=C/C(C)=C/C(=O)O)C(C)(C)CCC1 (stereo not drawn) [Compound 100, 3-methyl-5-(2-[2-(2,6,6-trimethylcyclohexen-1-yl)ethenyl]cyclohexyl)-2E,4E-pentadienoic acid]	5	> 10	72	0.106	9	> 10	
C/C(=C/C=C/C(C)=C/C(=O)O)c1cc2c(cc1C)C(C)(C)CCC2(C)C [Compound 128, (2E,4E,6Z)-7-(3,5,5,8,8-pentamethyl-5,6,7,8-tetrahydro-2-naphthyl)-3-methyl-octa-2,4,6-trienoic acid]	40	0.18	115	0.01	12	> 10	
CC1=C(/C=C/C(=C\C=C\C(C)=C\C(=O)O)C(C)(C)C)C(C)(C)CCC1 [Compound 77, 3-methyl-7-t-butyl-9-(2,6,6-trimethyl-1-cyclohexen-1-yl)-2E,4E,6Z,8E-nonatetranoic acid]	63	0.14	71	0.009	< 2	> 10	
CC1=C(/C=C/C2(C/C=C/C(C)=C/C(=O)O)CC2)C(C)(C)CCC1 [Compound 110]	29	0.446	87	0.198	9	> 10	
CC(/C=C/C1(c2cc3c(cc2C)C(C)(C)CCC3(C)C)CC1)=C\C(=O)O [Compound 104, (2E,4E)-3-methyl-5-[1-(3,5,5,8,8-pentamethyl-5,6,7,8-tetrahydro-2-naphthyl)cyclopropyl]penta-2,4-dienoic acid]	5	> 10	85	0.007	7	> 10	
C=C(c1ccc(C(=O)O)cc1)c1cc2c(cc1Br)C(C)(C)CCC2(C)C [3-Bromo-TTNEB, 4-[1-(3-bromo-5,5,8,8-tetramethyl-5,6,7,8-tetrahydro-2-naphthyl)ethenyl]benzoic acid]	18				3		0.052

More lines, in order of falling EC50 (RARβ), values ahead:

Emax at 10 µM (RARβ) [%]	EC50 (RARβ) [µM]	Emax at 10 µM (RXRγ; RXRγ) [%]	EC50 (RXRγ; [1]) [µM]	Emax at 10 µM (RARα) [%]	EC50 (RARα) [µM]	SMILES	EC50 (RXRγ) [µM]
25	1.9	163	0.048	< 2	> 10	C=C(c1ccc(C(=O)Nc2ccc(O)cc2)cc1)c1cc2c(cc1C)C(C)(C)CCC2(C)C [3-Methyl-TTNEHBP (63), 4-[1-(3,5,5,8,8-pentamethyl-5,6,7,8-tetrahydro-2-naphthyl)ethenyl]-N-(4-hydroxyphenyl)benzamide]	
58	0.18	106	0.011	< 2	> 10	CC1=C(/C=C/C(=C\C=C\C(C)=C\C(=O)O)C(C)C)C(C)(C)CCC1 [Compound 75, 3-methyl-7-isopropyl-9-(2,6,6-trimethyl-1-cyclohexen-1-yl)-2E,4E,6Z,8E-nonatetranoic acid]	
55	0.075	97	0.024	11	> 10	CC(/C=C/C=C(\c1ccc2c(c1)C(C)(C)CCC2(C)C)C(C)C)=C\C(=O)O [Compound 123, (2E,4E,6Z)-7-(5,5,8,8-tetramethyl-5,6,7,8-tetrahydro-2-naphthyl)-3,8-dimethyl-nona-2,4,6-trienoic acid]	
50	0.038	85	0.012	< 2	> 10	CCCC(=C/C=C/C(C)=C/C(=O)O)/C=C/C1=C(C)CCCC1(C)C [Compound 74, 3-methyl-7-propyl-9-(2,6,6-trimethyl-1-cyclohexen-1-yl)-2E,4E,6Z,8E-nonatetranoic acid]	
